Assay results as given in patent publication US10570097B2, “Antimicrobial imidazolium compounds” (AGENCY FOR SCIENCE, TECHNOLOGY AND RESEARCH, priority 2014, dated 2020).
Read-outs that look alike come from different tables or passages of the source.

Key:
E. coli [1] = assay: Minimum inhibitory concentration by microdilution assay; format: cell-based, Escherichia coli (ATCC 25922); conditions: for MIC E. coli: 37° C., 24 h
Protocol: (§1) Staphylococcus aureus (ATCC 6538, gram-positive), Escherichia coli (ATCC 25922, gram-negative), Pseudomonas aeruginosa (gram-negative), and Candida albicans (ATCC 10231, yeast) were used as representative microorganisms to challenge the antimicrobial functions of the imidazolium salts. All bacteria and yeast were stored frozen at −80° C., and were grown overnight at 37° C. in Tryptic Soy broth (TSB) prior to experiments. Yeast was grown overnight at 22° C. in Yeast Mold (YM) broth. Subsamples of these cultures were grown for 3 h further and diluted to give an optical density value of 0.07 at 600 nm, corresponding to 3×10^8 CFU mL^−1 (MacFarland's Standard).
(§2) The oligomer compounds were dissolved in PBS at a concentration of 1 mg mL^1 and the minimal inhibitory concentrations (MICs) were determined by microdilution assay. Typically, a 100 μL microbial solutions (containing 3×10^8 cells mL^−1) were added to 100 μL of PBS containing the test imidazolium salts (normally ranging from […] in serial two-fold dilutions) in each well of the 96-well microtiter plate. The plates were incubated at 37° C. for 24 h with shaking at 300 rpm, with monitoring at the 2, 4, 6, 8, and 24 h time points. […] Broth and PBS solution containing microbial cells alone were used as negative controls, and experiments were run in triplicates.

P. aeruginosa = assay: as above; format: cell-based, Pseudomonas aeruginosa; conditions: 37° C., 24 h
Protocol: as §1, §2

[2] = test system: 4 microbes (S. aureus, E. coli, P. aeruginosa, C. Albicans); assay: MIC over the 4 microbes tested (geometric mean); format: cell-based; conditions: geometric mean of the MICs of the 4 microbes
Protocol: Staphylococcus aureus (ATCC 6538, gram-positive), Escherichia coli (ATCC 25922, gram-negative), Pseudomonas aeruginosa (gram-negative), and Candida albicans (ATCC 10231, yeast) were used as representative microorganisms to challenge the antimicrobial functions of the imidazolium salts. All bacteria and yeast were stored frozen at −80° C., and were grown overnight at 37° C. in Tryptic Soy broth (TSB) prior to experiments. Yeast was grown overnight at 22° C. in Yeast Mold (YM) broth. […] Typically, a 100 μL microbial solutions (containing 3×10^8 cells mL^−1) were added to 100 μL of PBS containing the test imidazolium salts (normally ranging from […] in serial two-fold dilutions) in each well of the 96-well microtiter plate. The plates were incubated at 37° C. for 24 h with shaking at 300 rpm, with monitoring at the 2, 4, 6, 8, and 24 h time points. […] Broth and PBS solution containing microbial cells alone were used as negative controls, and experiments were run in triplicates. The selectivity of the materials was also further assessed, by calculating the selectivity indices (SI), a measure and a comparison of safety and efficacies of each oligomer compound. […] Herein, the more stringent control of HC10 value was chosen over the HC50 value often reported in literature.

S. aureus = assay: Minimum inhibitory concentration by microdilution assay; format: cell-based, Staphylococcus aureus (ATCC 6538); conditions: 37° C., 24 h
Protocol: as §1, §2

C. Albicans = assay: as above; format: cell-based, Candida albicans (ATCC 10231); conditions: 24 h
Protocol: as §1, §2

[3] = test system: rat red blood cells (RBCs); assay: Hemolysis; format: cell-based
Protocol: Before these materials can be used in systemic applications, selectivity of these materials for microbial cells over mammalian cells should also be considered. Such selectivity is often determined by observation of hemolysis. Hemolysis was performed in the following manner, fresh rat red blood cells (RBCs) were diluted with PBS buffer to give an RBC stock suspension (4 vol % blood cells). A 100 μL aliquot of RBC stock was added to a 96-well plate containing […] oligomer compound stock solutions of various concentrations (serial 2-fold dilution in PBS). After 1 h incubation at 37° C., The contents of each well was pipetted into a microcentrifuge tube and then centrifuged at 4000 rpm for 5 min. Hemolytic activity was determined as a function of hemoglobin release by measuring OD576 of […] of the supernatant. A control solution that contained only PBS was used as a reference for 0% hemolysis. 100% hemolysis was measured by adding 0.5% Triton-X to the RBCs. [formula] The selectivity of the materials was also further assessed, by calculating the selectivity indices (SI), a measure and a comparison of safety and efficacies of each oligomer compound. […] Herein, the more stringent control of HC10 value was chosen over the HC50 value often reported in literature.

[4] = Gelling properties in solvents (tube inversion test); format: physicochemical
Protocol: Gels were prepared by weighing the imidazolium oligomer compounds directly into 4 mL glass vials and subsequently adding a known weight or volume of the solvent. The vials containing both the imidazolium and the solvent were either vortexed or sonicated to ensure that the imidazolium was dissolved and dispersed thoroughly before being placed in a 4° C. fridge overnight. The tube inversion test method was used to examine gel formation in different solvents.

[5] = Critical micellar concentration (pyrene fluorescent probe); format: physicochemical; conditions: for CMC in PBS: PBS buffer solution; for CMC in DI H2O: deionised water
Protocol: The CMC values of the oligomer compounds were determined in both deionised (DI) water and PBS, using a LS50B luminescence spectrometer (Perkin Elmer, United States) and employing pyrene as a fluorescent probe. A known weight of the oligomer compound was dissolved in either 2 mL of DI water or PBS in a 4 mL glass vial and serial dilutions were effected. 10 μL of pyrene stock solution in acetone (6.16×10^-5 M) was added to each vial containing 1 mL of a known concentration of the oligomer compound, and the acetone was then evaporated at room temperature. The solution was allowed to equilibrate overnight and the final concentration of pyrene in each vial was 6.16×10^-7 M. The excitation spectra of the solutions were scanned from 300 to 360 nm with an emission wavelength of 395 nm, and both the excitation and emission bandwidths were set at 2.5 nm. The intensity ratios ([…]/[…]) were plotted against polymer concentration. The CMC value was given by the intersection of the tangent to the curve at the inflection and the tangent of the points at low polymer concentrations.

E. coli [6] = assay: Time kill kinetics; format: cell-based, Escherichia coli; conditions: for fast killing in words: E. coli time kill; for % kill / Log reduction: E. coli, 4MIC, two minutes
Protocol: Time kill studies of the soligome compounds against E. coli were also studied. The experimental setup for time kill kinetics was similar to the set up for MBC determination. The microbes were treated with oligomer compounds at 4MIC concentration, and samples were taken out of each well at 2 minutes. 500 μl of cell suspension was removed, rescued by a series of 10-fold dilutions with growth medium, and kept on ice until plating. For plating, 50 μl to 200 μl of the diluted samples was spread on growth medium agar plates and colonies were counted after overnight incubation at 37° C.

[7] = lowest concentration that induces 10% or more hemolysis, rat RBCs, 1 h, 37° C., maximum tested 100,000 ppm

Row | SMILES | MIC P.A. (P. aeruginosa) | MIC GM [2] | MIC E. coli (E. coli [1]) | MIC S.A. (S. aureus) | MIC C.A. (C. Albicans) | HC10 [3, 7] | CMC in PBS [5] | CMC in DI H2O [5] | fast killing in words (E. coli [6]) | % kill (E. coli [6]) | State in solvent ([4]; Acetone) | State in solvent ([4]; Acetonitrile) | Concentration to form gel ([4]; EtOH) | State in solvent ([4]; EtOH) | State in solvent ([4]; Ethylene glycol) | State in solvent ([4]; Glycerol) | Concentration to form gel ([4]; nBuOH) | State in solvent ([4]; nBuOH) | Concentration to form gel ([4]; nPrOH) | State in solvent ([4]; nPrOH) | also measured
1 | CCCCCCCC[n+]1ccn(C)c1.[Br-] [1-Methyl-3-octyl imidazolium bromide, reference compound] |  |  |  |  |  |  |  |  |  |  |  |  |  |  |  |  |  |  |  |  | MIC (E. coli [1]; Escherichia coli, Example 8, microbe not named, E. coli context): 1000 µg/mL; MIC relative to Compound 2 (E. coli [1]; ratio of MIC to that of Compound 2): more than 100 times
2 | [Br-].[Br-].[Cl-].[Cl-].[Cl-].[Cl-].c1ccc(Cn2cc[n+](Cc3ccc(Cn4cc[n+](Cc5ccc(Cn6cc[n+](CC7CCCCC7)c6)cc5)c4)cc3)c2)c(Cn2cc[n+](Cc3ccc(Cn4cc[n+](Cc5ccc(Cn6cc[n+](CC7CCCCC7)c6)cc5)c4)cc3)c2)c1 [Compound 7] | 16 µg/mL | 15.87 µg/mL | 16 µg/mL | 8 µg/mL | 31 µg/mL | 12500 ppm |  |  |  |  |  |  |  |  |  |  |  |  |  |  | Gel formation ([4]; any of the solvents): not able to form gels
3 | CCCCCCCCCCCC[n+]1ccn(Cc2ccc(C[n+]3ccn(Cc4ccc(C[n+]5ccn(Cc6ccccc6Cn6cc[n+](Cc7ccc(Cn8cc[n+](Cc9ccc(Cn%10cc[n+](CCCCCCCCCCCC)c%10)cc9)c8)cc7)c6)c5)cc4)c3)cc2)c1.[Br-].[Br-].[Cl-].[Cl-].[Cl-].[Cl-] [Compound 4] | 16 µg/mL | 11.22 µg/mL | 8 µg/mL | 4 µg/mL | 31 µg/mL | 31 ppm | 10.9 ppm | 938.5 ppm | instantaneous elimination | >99.9% | Insoluble | Insoluble | (9.0 wt %) | Gel | Solution | Solution | (5.8 wt %) | Gel | (7.2 wt %) | Gel | Log reduction (E. coli [6]): 3.69; Gel formation ([4]; binary mixtures of water/ethanol and glycerol/ethanol): did not form a gel
4 | CCCCCCCCCC[n+]1ccn(Cc2ccc(C[n+]3ccn(Cc4ccc(C[n+]5ccn(Cc6ccccc6Cn6cc[n+](Cc7ccc(Cn8cc[n+](Cc9ccc(Cn%10cc[n+](CCCCCCCCCC)c%10)cc9)c8)cc7)c6)c5)cc4)c3)cc2)c1.[Br-].[Br-].[Cl-].[Cl-].[Cl-].[Cl-] [Compound 3] | 8 µg/mL | 9.44 µg/mL | 8 µg/mL | 4 µg/mL | 31 µg/mL |  |  |  | instantaneous elimination | >99.9% | Insoluble | Insoluble | (12 wt %) | Gel | Solution | Solution | (7.9 wt %) | Gel | (7.9 wt %) | Gel | sharp point of inflection indicating the critical micellar concentrations ([5]; FIG. 4, deionized water): not observed; Log reduction (E. coli [6]): 3.49; HC10 [3]: 500 ppm
5 | CCCCCCCCCCCCCC[n+]1ccn(Cc2ccc(C[n+]3ccn(Cc4ccc(C[n+]5ccn(Cc6ccccc6Cn6cc[n+](Cc7ccc(Cn8cc[n+](Cc9ccc(Cn%10cc[n+](CCCCCCCCCCCCCC)c%10)cc9)c8)cc7)c6)c5)cc4)c3)cc2)c1.[Br-].[Br-].[Cl-].[Cl-].[Cl-].[Cl-] [Compound 5] | 16 µg/mL | 13.35 µg/mL | 16 µg/mL | 4 µg/mL | 31 µg/mL | 15 ppm | 4.9 ppm | 200.3 ppm |  |  | Insoluble | Insoluble | (12.9 wt %) | Gel | Solution | Solution | (5.3 wt %) | Gel | (5.3 wt %) | Gel | 
6 | CCCCCCCCCCCCCCCC[n+]1ccn(Cc2ccc(C[n+]3ccn(Cc4ccc(C[n+]5ccn(Cc6ccccc6Cn6cc[n+](Cc7ccc(Cn8cc[n+](Cc9ccc(Cn%10cc[n+](CCCCCCCCCCCCCCCC)c%10)cc9)c8)cc7)c6)c5)cc4)c3)cc2)c1.[Br-].[Br-].[Cl-].[Cl-].[Cl-].[Cl-] [Compound 6] | 16 µg/mL | 18.88 µg/mL | 16 µg/mL | 8 µg/mL | 62 µg/mL | 15 ppm | 1.3 ppm | 38.5 ppm |  |  | Insoluble | Insoluble | (9.6 wt %) | Gel | opaque gels and Gel | opaque gels and Gel | (6.9 wt %) | Gel | (6.9 wt %) | Gel | Concentration to form gel ([4]; Ethylene glycol): (4.7 wt %); Concentration to form gel ([4]; Glycerol): (6.3 wt %)
